pIC50: −log10 of the molar value. Values after ≈ are worked out from the molar mass of the structure shown.

Our source for the MIC and IC50 values is ChEMBL document CHEMBL3232998, “Spiromastixones A-O, antibacterial chlorodepsidones from a deep-sea-derived Spiromastix sp. fungus” (J Nat Prod, 2014).

Test [1] concerns Staphylococcus aureus. The test is described as follows: Antibacterial activity against Staphylococcus aureus ATCC 29213 after 18 hrs by broth microdilution method. To be noted: ATCC 29213, 18 h. In kind it is functional. Background: In broth dilution the organism is exposed to a series of concentrations in liquid medium.
Test [2] relates to Bacillus thuringiensis. The test is described as follows: Antibacterial activity against Bacillus thuringiensis SCSIO BT01 after 18 hrs by broth microdilution method. The class given is functional. To be noted: SCSIO BT01, 18 h.
The test system of test [3] is Bacillus subtilis. Nature of the test: Antibacterial activity against Bacillus subtilis SCSIO BS01 after 18 hrs by broth microdilution method. Conditions: SCSIO BS01, 18 h. In kind it is functional.
Test [4] relates to Escherichia coli. The test is described as follows: Antibacterial activity against Escherichia coli ATCC 25922 after 18 hrs by broth microdilution method. To be noted: ATCC 25922, 18 h. In kind it is functional.
Test [5] deals with Staphylococcus aureus. The test is described as follows: Antibacterial activity against methicillin-sensitive Staphylococcus aureus ATCC 29213 after 18 hrs by broth microdilution method. To be noted: ATCC 29213, 18 h, read-out: IC50. The class given is functional, organism-based.
Test [6] concerns Staphylococcus aureus. The test is described as follows: Antibacterial activity against methicillin-resistant Staphylococcus aureus ATCC 33591 after 18 hrs by broth microdilution method. To be noted: ATCC 33591, 18 h, read-out: IC50. In kind it is functional, organism-based.
Test [7] deals with Staphylococcus aureus. The test is described as follows: Antibacterial activity against methicillin-sensitive Staphylococcus aureus 15 after 18 hrs by broth microdilution method. The class given is functional, organism-based. To be noted: Staphylococcus aureus, 15, 18 h; read-out: IC50.
For test [8], the system named is Staphylococcus aureus. Nature of the test: Antibacterial activity against methicillin-sensitive Staphylococcus aureus 12-28 after 18 hrs by broth microdilution method. In kind it is functional, organism-based. To be noted: 12-28, 18 h.
The subject of test [9] is Staphylococcus aureus. The test is described as follows: Antibacterial activity against methicillin-resistant Staphylococcus aureus 12-33 after 18 hrs by broth microdilution method. The class given is functional, organism-based. Conditions: 12-33, 18 h, read-out: IC50.
Test [10] deals with Staphylococcus epidermidis. Nature of the test: Antibacterial activity against methicillin-sensitive Staphylococcus epidermidis ATCC 12228 after 18 hrs by broth microdilution method. Conditions: ATCC 12228, 18 h, read-out: IC50. The class given is functional, organism-based.
Test [11] concerns Staphylococcus epidermidis. Nature of the test: Antibacterial activity against methicillin-sensitive Staphylococcus epidermidis 12-6 after 18 hrs by broth microdilution method. To be noted: 12-6, 18 h. In kind it is functional, organism-based.
In test [12] the test system is Staphylococcus epidermidis. Nature of the test: Antibacterial activity against methicillin-resistant Staphylococcus epidermidis 12-8 after 18 hrs by broth microdilution method. The class given is functional, organism-based. Conditions: 12-8, 18 h, read-out: IC50.
The test system of test [13] is Enterococcus faecalis. The test is described as follows: Antibacterial activity against vancomycin-sensitive Enterococcus faecalis ATCC 29212 after 18 hrs by broth microdilution method. The class given is functional, organism-based. Conditions: ATCC 29212, 18 h, read-out: IC50.
For test [14], the system named is Enterococcus faecalis. The test is described as follows: Antibacterial activity against vancomycin-resistant Enterococcus faecalis ATCC 51299 after 18 hrs by broth microdilution method. In kind it is functional, organism-based. To be noted: ATCC 51299, 18 h, read-out: IC50.
The test system of test [15] is Enterococcus faecalis. Nature of the test: Antibacterial activity against vancomycin-sensitive Enterococcus faecalis 12-5 after 18 hrs by broth microdilution method. In kind it is functional, organism-based. To be noted: 12-5, 18 h, read-out: IC50.
Test [16] has as its system Enterococcus faecalis. Nature of the test: Antibacterial activity against vancomycin-resistant Enterococcus faecalis 09-9 after 18 hrs by broth microdilution method. In kind it is functional, organism-based. To be noted: 09-9, 18 h, read-out: IC50.
The test system of test [17] is Enterococcus faecium. The test is described as follows: Antibacterial activity against vancomycin-resistant Enterococcus faecium ATCC 700221 after 18 hrs by broth microdilution method. In kind it is functional, organism-based. To be noted: ATCC 700221, 18 h, read-out: IC50.
For test [18], the system named is Enterococcus faecium. Nature of the test: Antibacterial activity against vancomycin-resistant Enterococcus faecium 12-1 after 18 hrs by broth microdilution method. Conditions: 12-1, 18 h, read-out: IC50. The class given is functional, organism-based.
Test [19] deals with Enterococcus faecium. Nature of the test: Antibacterial activity against vancomycin-sensitive Enterococcus faecium 12-3 after 18 hrs by broth microdilution method. In kind it is functional, organism-based. To be noted: 12-3, 18 h, read-out: IC50.
The subject of test [20] is Escherichia coli. The test is described as follows: Antibacterial activity against extended spectrum beta-lactamase-deficient Escherichia coli ATCC 25922 after 18 hrs by broth microdilution method. In kind it is functional, organism-based. Conditions: ATCC 25922, 18 h, read-out: IC50.
Test [21] deals with Escherichia coli. The test is described as follows: Antibacterial activity against extended spectrum beta-lactamase-deficient Escherichia coli 1515 after 18 hrs by broth microdilution method. In kind it is functional, organism-based. Conditions: Escherichia coli, 1515, 18 h.
The subject of test [22] is Escherichia coli. The test is described as follows: Antibacterial activity against extended spectrum beta-lactamase-deficient Escherichia coli 12-14 after 18 hrs by broth microdilution method. In kind it is functional, organism-based. Conditions: 12-14, 18 h, read-out: IC50.
For test [23], the system named is Escherichia coli. Nature of the test: Antibacterial activity against extended spectrum beta-lactamase producing Escherichia coli 12-15 after 18 hrs by broth microdilution method. The class given is functional, organism-based. Conditions: 12-15, 18 h, read-out: IC50.
Test [24] deals with Klebsiella pneumoniae. The test is described as follows: Antibacterial activity against extended spectrum beta-lactamase producing Klebsiella pneumoniae ATCC 700603 after 18 hrs by broth microdilution method. In kind it is functional, organism-based. To be noted: ATCC 700603, 18 h.
In test [25] the test system is Klebsiella pneumoniae. The test is described as follows: Antibacterial activity against extended spectrum beta-lactamase-deficient Klebsiella pneumoniae 7 after 18 hrs by broth microdilution method. The class given is functional, organism-based. Conditions: Klebsiella pneumoniae, 7, 18 h; read-out: IC50.
For test [26], the system named is Klebsiella pneumoniae. The test is described as follows: Antibacterial activity against NDM-1 producing Klebsiella pneumoniae ATCC BAA-2146 after 18 hrs by broth microdilution method. Conditions: ATCC BAA-2146, 18 h, read-out: IC50. The class given is functional, organism-based.
Test [27] deals with Klebsiella pneumoniae. Nature of the test: Antibacterial activity against extended spectrum beta-lactamase-deficient Klebsiella pneumoniae 12-4 after 18 hrs by broth microdilution method. In kind it is functional, organism-based. To be noted: 12-4, 18 h.
The test system of test [28] is Klebsiella pneumoniae. The test is described as follows: Antibacterial activity against extended spectrum beta-lactamase producing Klebsiella pneumoniae 12-8 after 18 hrs by broth microdilution method. The class given is functional, organism-based. To be noted: 12-8, 18 h, read-out: IC50.

Regarding `CCCc1c(Cl)c(OC)c(Cl)c2c1OC(=O)c1c(CCC)c(Cl)c(O)c(Cl)c1O2`, the MIC was 0.25 µg/mL (≈ 0.521 µM) in test [1], 0.5 µg/mL (≈ 1.04 µM) in [2], 0.25 µg/mL (≈ 0.521 µM) in test [3] and over 128 µg/mL in test [4].

Regarding `CC1(C)S[C@@H]2[C@H](NC(=O)Cc3ccccc3)C(=O)N2[C@H]1C(=O)O` [PENICILLIN G], the MIC in test [1] was 0.125 µg/mL (≈ 0.374 µM); in test [2] it was 128 µg/mL (≈ 383 µM); in [3], 0.125 µg/mL (≈ 0.374 µM); in test [4], over 128 µg/mL.

Usually pIC50 stands for the IC50 on a negative log10 scale, so that one unit is a factor of ten. High values mean a small IC50, low ones a large IC50. On to `CCCc1cc(O)cc2c1Oc1c(Cl)c(O)cc(CCC)c1C(=O)O2`, for which the MIC in test [1] was 8 µg/mL (≈ 22.1 µM); in test [2] it was 8 µg/mL (≈ 22.1 µM); in test [3] it was 16 µg/mL (≈ 44.1 µM); in test [4], over 128 µg/mL; in test [5], 32 µM (≈ 11.6 µg/mL); in [6], 64 µM (≈ 23.2 µg/mL). In addition, the MIC in [7] was 64 µM (≈ 23.2 µg/mL); in test [9] it was 64 µM (≈ 23.2 µg/mL); in [10], 64 µM (≈ 23.2 µg/mL); in [12] it was 32 µM (≈ 11.6 µg/mL); in test [13] it was 256 µM (≈ 92.9 µg/mL); in test [14] it was over 256 µM. The MIC in test [15] was over 256 µM; in [16], 256 µM (≈ 92.9 µg/mL); in [17], over 256 µM; in test [18] it was 256 µM (≈ 92.9 µg/mL); in test [19] it was over 256 µM; in test [20] it was over 256 µM. The MIC in test [22], in test [23], in [25], in test [26] and in [28] was over 256 µM in each case. Further, the pIC50 was 4.19 in test [8]; 4.19 in test [11]; under 3.59 in test [21]; under 3.59 in test [24]; under 3.59 in test [27].

In the case of `CCCc1c(Cl)c(O)cc2c1OC(=O)c1c(CCC)c(Cl)c(O)c(Cl)c1O2`, the MIC was 1 µg/mL (≈ 2.32 µM) in test [1], 1 µg/mL (≈ 2.32 µM) in [2], 0.5 µg/mL (≈ 1.16 µM) in test [3] and over 128 µg/mL in test [4].

For `CCCc1cc(O)cc2c1OC(=O)c1c(CCC)c(Cl)c(O)c(Cl)c1O2`, the MIC in test [1] is 4 µg/mL (≈ 10.1 µM); in test [2], 2 µg/mL (≈ 5.03 µM); in [3], 2 µg/mL (≈ 5.03 µM); in test [4], over 128 µg/mL.

`CCCc1cc(O)cc2c1Oc1c(Cl)c(O)c(Cl)c(CCC)c1C(=O)O2`: the MIC in test [1] was 4 µg/mL (≈ 10.1 µM); in [2] it was 2 µg/mL (≈ 5.03 µM); in test [3] it was 4 µg/mL (≈ 10.1 µM); in test [4], over 128 µg/mL; in [5], 64 µM (≈ 25.4 µg/mL); in test [6], 32 µM (≈ 12.7 µg/mL). Further, the MIC in [7] is 64 µM (≈ 25.4 µg/mL); in test [9], 128 µM (≈ 50.8 µg/mL); in test [10], 32 µM (≈ 12.7 µg/mL); in test [12], 64 µM (≈ 25.4 µg/mL); in [13] it was over 256 µM; in test [14] it was over 256 µM. In addition, the MIC in test [15], in test [16], in test [17], in test [18], in [19] and in test [20] was over 256 µM each time. Moreover, the MIC in [22], in [23], in test [25], in test [26] and in test [28] was over 256 µM each time. For the same compound, the pIC50 is 3.89 in [8]; 4.49 in test [11]; under 3.59 in test [21]; under 3.59 in [24]; under 3.59 in [27].

Consider `CCCc1cc(O)cc2c1Oc1cc(O)c(Cl)c(CCC)c1C(=O)O2`, for which the MIC in test [1] was 8 µg/mL (≈ 22.1 µM); in test [2] it was 4 µg/mL (≈ 11 µM); in test [3] it was 8 µg/mL (≈ 22.1 µM); in [4], over 128 µg/mL.
